From patent EP1202967B1, “SULFURIC ACID MONO-[3-({1-[2-(4-FLUORO-PHENYL)-ETHYL]-PIPERIDIN-4-YL}-HYDROXY-METHYL)-2-METHOXY-PHENYL]ESTER” (AVENTIS PHARMACEUTICALS INC., priority 1999, dated 2001)

How the values were obtained:
human 5-HT2A = molecular target: T1, human 5-HT2A (Homo sapiens, UniProt P28223); assay: Receptor binding assay, inhibition of [3H]-ligand binding to human 5-HT2A
T1 construct: expressed in transfected cells; membranes prepared
Experimental: Cells stably expressing the human homologs of the receptors (dopamine D2L, serotonin 5HT2A and 5HT2C, α1A adrenergic; cloned and expressed at Hoechst Marion Roussel; Grandy et al., 1989: Monsma et al., 1993; Schwinn et al., 1995) were grown: cell membranes were prepared, and kept frozen until used (Kongsamut et al., 1996). The relevance of these binding sites has been extensively discussed in the literature (see for example: Carlsson & Carlsson. 1990; Creese et al., 1976; Gorman & Vargas, 1995; Meltzer et al., 1989). All binding parameters were optimized at Hoechst Marion Roussel; ligand KdS were determined using both saturation analysis (Scatchard) as well as kinetic analysis (association and dissociation rates). Each batch of membrane was validated by checking the ligand Kd, and rank order of potency of selected standard compounds. […]
Membranes were rapidly thawed and diluted to an appropriate concentration (between 20 - 150 µg protein/assay point depending on receptor expression level) in Tris buffer and homogenized. […] Microscint scintillation cocktail (40 µl) were added and the filter plates were counted in a Packard Top Count scintillation counter. Data were analyzed to determine Ki's for compounds of interest (Prusoff & Cheng, […]).Table: Receptor Binding Parameters. […]

human 5-HT2C = molecular target: T2, human 5-HT2C (Homo sapiens, UniProt P28335); assay: Receptor binding assay, inhibition of [3H]-ligand binding to human 5-HT2C; settings: [3H]mesulergine 2 nM, CHO cell membranes, 37°C, 40 min
T2 construct: expressed in transfected cells; membranes prepared
T2 sequence (P28335 33-458): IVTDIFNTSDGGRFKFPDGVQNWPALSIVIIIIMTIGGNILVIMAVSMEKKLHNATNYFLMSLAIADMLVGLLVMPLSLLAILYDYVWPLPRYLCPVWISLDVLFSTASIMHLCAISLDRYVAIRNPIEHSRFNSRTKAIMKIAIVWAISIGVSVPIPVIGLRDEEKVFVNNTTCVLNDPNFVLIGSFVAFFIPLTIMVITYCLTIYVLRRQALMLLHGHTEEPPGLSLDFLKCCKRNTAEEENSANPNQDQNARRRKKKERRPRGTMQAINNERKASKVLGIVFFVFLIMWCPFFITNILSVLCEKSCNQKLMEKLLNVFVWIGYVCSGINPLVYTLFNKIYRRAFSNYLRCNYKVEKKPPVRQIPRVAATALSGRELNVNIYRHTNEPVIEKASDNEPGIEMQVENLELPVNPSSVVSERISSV
Experimental: (§1) Cells stably expressing the human homologs of the receptors (dopamine D2L, serotonin 5HT2A and 5HT2C, α1A adrenergic; cloned and expressed at Hoechst Marion Roussel; Grandy et al., 1989: Monsma et al., 1993; Schwinn et al., 1995) were grown: cell membranes were prepared, and kept frozen until used (Kongsamut et al., 1996). […] All binding parameters were optimized at Hoechst Marion Roussel; ligand KdS were determined using both saturation analysis (Scatchard) as well as kinetic analysis (association and dissociation rates). Each batch of membrane was validated by checking the ligand Kd, and rank order of potency of selected standard compounds. Assays for the serotonin 5HT2A and dopamine D2L receptors were conducted at 37°C in a Tris buffer containing salts (50 mM Tris Buffer, pH 7.7; 120 mM NaCl; 5 mM KCI; 2 mM CaCl2; 1 mM MgCl2), while the serotonin 5-HT2C and α1A adrenergic receptor assays used a different buffer without salts (50 mM Tris, 4 mM CaCl2 and 1% ascorbate, pH 7.4). […]
(§2) Membranes were rapidly thawed and diluted to an appropriate concentration (between 20 - 150 µg protein/assay point depending on receptor expression level) in Tris buffer and homogenized. […] Microscint scintillation cocktail (40 µl) were added and the filter plates were counted in a Packard Top Count scintillation counter.

human α1A = molecular target: T3, human α1A (Homo sapiens, UniProt P35348); assay: Receptor binding assay, inhibition of [3H]-ligand binding to human α1A; settings: [3H]prazosin 1 nM, CHO cell membranes, 37°C, 40 min
T3 construct: expressed in transfected cells; membranes prepared
T3 sequence (P35348 1-466): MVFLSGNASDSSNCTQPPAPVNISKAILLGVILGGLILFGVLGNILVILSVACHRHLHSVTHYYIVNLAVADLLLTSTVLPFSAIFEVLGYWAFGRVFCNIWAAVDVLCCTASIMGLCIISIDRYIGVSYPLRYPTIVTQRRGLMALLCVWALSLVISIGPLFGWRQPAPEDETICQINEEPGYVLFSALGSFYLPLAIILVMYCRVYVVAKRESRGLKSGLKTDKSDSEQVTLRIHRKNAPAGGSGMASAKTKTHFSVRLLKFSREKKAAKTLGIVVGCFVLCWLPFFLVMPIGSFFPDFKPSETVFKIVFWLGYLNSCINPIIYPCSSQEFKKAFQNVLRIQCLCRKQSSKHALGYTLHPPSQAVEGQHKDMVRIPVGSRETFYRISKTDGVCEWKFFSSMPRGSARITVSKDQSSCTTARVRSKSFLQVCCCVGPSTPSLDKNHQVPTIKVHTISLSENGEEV
Experimental: as §1, §2

[1] = Bovine Brain Endothelial Cells (BBMEC) transport study, in vitro BBB permeability; assay type: in vitro ADME; settings: BBMEC monolayer, mean ± standard deviation
Experimental: The compounds of this invention are capable of crossing the blood-brain barrier (BBB) as shown by their ability to penetrate across a membrane of a monolayer of bovine brain microvessel endothelial cells, an in vitro model for BBB permeability.
The procedure was performed according to: Kenneth L. Audus et al., Brain Microvessel Endothelial Cell Culture System (Chapter 13) pp 239-258. In Models for Assessing Drug Absorption and Metabolism, Ronald T. Borchardt et al. eds., Plenum Press, New York 1996.

human D2L = molecular target: T4, human D2L (Homo sapiens, UniProt P14416); assay: Receptor binding assay, inhibition of [3H]-ligand binding to human D2L; settings: [3H]N-methyl spiperone 1 nM, CHO cell membranes, 37°C, 60 min; read-out: D2(Ki µM)
T4 construct: expressed in transfected cells; membranes prepared
T4 sequence (P14416 whole entry): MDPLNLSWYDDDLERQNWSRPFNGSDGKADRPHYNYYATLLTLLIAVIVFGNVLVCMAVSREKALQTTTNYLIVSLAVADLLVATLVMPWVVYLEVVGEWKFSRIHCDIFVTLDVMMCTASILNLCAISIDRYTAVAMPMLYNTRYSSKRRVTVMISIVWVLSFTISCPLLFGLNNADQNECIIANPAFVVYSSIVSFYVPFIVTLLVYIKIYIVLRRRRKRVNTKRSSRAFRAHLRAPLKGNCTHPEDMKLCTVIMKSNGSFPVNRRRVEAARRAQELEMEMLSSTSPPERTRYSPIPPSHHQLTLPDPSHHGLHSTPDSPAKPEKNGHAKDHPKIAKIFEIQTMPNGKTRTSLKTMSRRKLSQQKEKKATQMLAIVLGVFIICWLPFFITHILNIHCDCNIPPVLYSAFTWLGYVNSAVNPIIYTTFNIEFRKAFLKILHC
Experimental: as §1, §2

T1 sequence (P28223 whole entry): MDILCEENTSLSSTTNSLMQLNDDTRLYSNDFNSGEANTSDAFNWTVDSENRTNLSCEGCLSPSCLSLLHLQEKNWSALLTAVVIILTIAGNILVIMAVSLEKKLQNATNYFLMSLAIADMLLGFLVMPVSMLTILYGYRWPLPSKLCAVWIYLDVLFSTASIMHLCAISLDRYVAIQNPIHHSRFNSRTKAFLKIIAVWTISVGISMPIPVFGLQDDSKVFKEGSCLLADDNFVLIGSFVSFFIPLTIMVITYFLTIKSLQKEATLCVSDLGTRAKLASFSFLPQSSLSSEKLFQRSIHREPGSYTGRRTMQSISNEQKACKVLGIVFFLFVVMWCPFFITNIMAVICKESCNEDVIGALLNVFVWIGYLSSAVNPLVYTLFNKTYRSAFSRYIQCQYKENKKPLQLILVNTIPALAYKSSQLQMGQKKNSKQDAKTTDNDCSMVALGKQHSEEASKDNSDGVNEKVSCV

SMILES | Ki (human 5-HT2A; [3H]N-methyl spiperone 1.5 nM, BHK cell membranes, 37°C, 40 min) [µM] | Ki (human 5-HT2C) [µM] | Ki (human α1A) [µM] | Papp at 5.4 µM [1] [×10⁻⁶ cm/s] | Papp at 16 µM [1] [×10⁻⁶ cm/s] | Ki (human D2L) [µM] | Kd (human 5-HT2A; radioligand Kd at human 5-HT2A, BHK, saturation (Scatchard) and kinetic analysis) [µM]
COc1c(OS(=O)(=O)O)cccc1C(O)C1CCN(CCc2ccc(F)cc2)CC1 (single isomer, unassigned) [Example 1H, Sulfuric acid mono-(+)-(3-(-{1-[2-(4-fluoro-phenyl)-ethyl]-piperidin-d-yl}-hydroxy-methyl)-2-methoxy-phenyl] ester] | 0.16 | > 1 | > 1 | 41.4 ± 16.4 | 52.5 ± 9.5 | > 1 | –
OC[C@@H](O)[C@@H](O)[C@H](O)[C@H](O)CO [Mannitol, reference compound] | – | – | – | 27.6 ± 2.3 | 27.6 ± 2.3 | – | –
CN1CN(c2ccccc2)C2(CCN(CCCC(=O)c3ccc(F)cc3)CC2)C1=O [[^3H]N-methyl spiperone, reference compound] | – | – | – | – | – | – | 0.00092
